Source: patent publication US20020001652A1, “Process for making granulated N-[N- (3, 3-dimethylbutyl) -L-alpha -aspartyl] -L- phenylalanine 1-methyl ester” (priority 2000, published 2002)

Legend:
[1] = HPLC analysis of neotame degradation during granulation; assay type: physicochemical; conditions: roller compaction, cone mill, sieving
Source text: A lab scale TF-Mini roller compactor (Vector Corp., Marion, Iowa) was used in conjunction with a cone mill and a Ro-Tap testing sieve shaker (model B, CE Tyler Combustion Engineering, Inc., Mentor, Ohio) for testing and producing granulated neotame. The neotame powder flowed well into the feed hopper. […] The energy consumption of the rolls and feed screw were within the desired limits. The flakes were broken down into granular particles using a cone mill. The granulation was sieved to obtain a particle size that passed through 20 mesh and was retained on 60 mesh.

[2] = bulk density (loose), cup of known volume; assay type: physicochemical; conditions: Example 2; granulation through 20 mesh, retained on 60 mesh, versus initial powder
Description: In particular, bulk density (loose) was measured using a cup of known volume. The cup was filled with sample, excess was removed and the sample was weighed.

## COC(=O)[C@H](Cc1ccccc1)NC(=O)[C@H](CC(=O)O)NCCC(C)(C)C [neotame, N-[N-(3,3-dimethylbutyl)-L-α-aspartyl]-L-phenylalanine 1-methyl ester]
[1]
  degradation of neotame during granulation process: no degradation
[2]
  bulk density: 0.4 g/cc
